Measurements taken from US20260034091A1, “Compositions and Methods for Treating Metabolic Disorders” (The Regents of the University of California, priority 2022, published 2026).

Columns and labels:
[1] = tested on: 60% kcal fat diet induced metabolic syndrome and early stage NAFLD in mice; test: Rescue effect of TOFA in 60% kcal fat diet induced early-stage hepatic steatosis and associated metabolic disorders; assay type: in vivo, C57BL/6 male mice
Description: Six-week-old C57BL/6 male mice were fed with a 60 kcal % fat diet (Research Diets A12492i) for seven weeks before introduction of either vehicle (control) or 250 mg/kg initial loading dose of TOFA daily via twice daily oral gavage for one week (FIG. 2A). Mice were then treated with either vehicle (control) or 125 mg/kg maintenance dose of TOFA daily via twice daily gavage for three additional weeks. Mice weights were tracked during the entire time course. After three weeks of treatment, an intraperitoneal glucose tolerance test (IP-GTT) and insulin tolerance test (IP-ITT) were performed. Prior to these tests, mice were fasted for six hours before a challenge of either 1 g/kg D-glucose or 0.75 U/kg HumulinR (Eli Lilly) and blood glucose levels were monitored for two hours (Bayer Contour Next). Venous fasting blood was collected through the tail vein and used to measure fasting insulin levels by commercially available ELISA kits (CrystalChem90080). Prior to harvest, mice underwent whole body composition analysis (EchoMRI™ 2012). Upon study termination at 11 weeks, serum and liver samples were collected. Serum liver damage biomarkers, ALT and AST, were measured by commercially available kits (abcam 105134 and abcam105135, respectively). Hepatic and serum triglyceride levels were measured from a commercially available kit (abcam65336).

chow diet fed mice = test: Tolerability and toxicity of TOFA in ad libitum fed chow mice; assay type: in vivo, C57BL/6J male mice; conditions: oral gavage
Description: Eleven-week-old C57BL/6J male mice were fed with PicoLab Rodent Diet (Purina 5053), or chow diet, ad libitum while being treated with either control or 125 mg/kg, BID by oral gavage for three weeks. Mice weights were tracked during the entire time course. Upon study termination, serum and liver samples were collected. Serum biomarkers such as blood urea nitrogen (BUN) and creatinine were assessed by commercially available kits (abcam83362 and Cayman700460, respectively). Additionally, hepatic and serum triglyceride and cholesterol levels were measured by commercially available kits (abcam65336 and abcam65390, respectively).

[2] = tested on: 60% HFD diet-induced obesity in mice; test: Dose-dependent effect of TOFA in 60% HFD mouse model of diet-induced obesity (DIO); assay type: in vivo, C57BL/6J male mice; conditions: for body weight: oral
Description: Six-week-old C57BL/6J male mice were fed with a 60 kcal % fat diet (Research Diets A12492i) for ten weeks before introduction of either vehicle (control) or TOFA, at varying doses, for an additional two weeks. TOFA was orally administered in doses of either 12.5, 25, 62.5, or 125 mg/kg, BID. Mice weights and food intake were monitored during the treatment time course. Prior to harvest, mice underwent whole body composition analysis (EchoMRI™ 2012). Upon study termination at 12 weeks, serum and liver samples were collected. Hepatic and serum triglyceride and cholesterol levels were measured by commercially available kits (abcam65336 and abcam65390, respectively). Additional liver samples were fixed in 4% paraformaldehyde and embedded in paraffin blocks for sectioning and subsequently stained with hematoxylin and eosin (H&E).

[3] = tested on: CDAHFD-induced late stage NAFLD/NASH in mice; test: Benchmark study against Firsocostat and Fenofibrate in CDAHFD-induced late stage NAFLD/NASH; assay type: in vivo, C57BL/6J male mice; conditions: QD oral gavage four weeks
Description: Six-week-old C57BL/6J male mice were fed with a L-amino acid diet with 60 kcal % fat with 0.1% methionine and no added choline (CDAHFD; Research Diets A06071302i) for eight weeks. Mice were randomly assigned to treatment groups of either a vehicle (control), 250 mg/kg of TOFA, 5 mg/kg of Firsocostat (Gilead Sciences), 50 mg/kg of Fenofibrate, or a combined dose of 5 mg/kg Firsocostat and 50 mg/kg Fenofibrate. All treatments were delivered QD by oral gavage for an additional four weeks. Mice weights and food intake were monitored during the treatment time course. Upon study termination at 12 weeks, liver and serum samples were collected. Serum liver damage biomarkers, ALT and AST, were measured by commercially available kits (abcam 105134 and abcam 105135, respectively). Hepatic and serum triglyceride levels were measured from a commercially available kit (abcam65336). Total RNA was extracted from liver tissues (Qiagen RNeasy kit 74106), and cDNA was prepared (BioRAD iScript™ Reverse Transcription) according to manufacturer's protocols. Quantitative PCR (qPCR) was performed with fast SYBR Green Mix (ThermoFisher A25742) on the QuantStudio6 System (Applied Biosciences). Protein expression levels of liver samples were measured by western blot using antibodies against VLDLR (AF2258, 1:2000), CPT1A (CST12252, 1:1000) and Histone H3 (CST9715, 1:1000). Membranes were developed using a HRP secondary antibody (1:5000) and visualized using an enhanced chemiluminescent HRP substrate (Thermo34577). Additional liver samples were fixed in 4% paraformaldehyde and embedded in paraffin blocks for sectioning and subsequently stained with hematoxylin and eosin (H&E).

[4] = 250 mg/kg daily 1 week then 125 mg/kg daily 3 weeks, twice daily oral gavage
[5] = 125 mg/kg, BID, three weeks, chow diet
[6] = 12.5, 25, 62.5, or 125 mg/kg, BID, two weeks

## CCCCCCCCCCCCCCOc1ccc(C(=O)O)o1 [TOFA, 5-(Tetradecyloxy)-2-furoic acid]
[1]; [4]
  body weight: weight loss compared to the vehicle control treated mice
  fat mass relative to whole body weight (EchoMRI): significant reduction of fat mass
  food intake: without impacting food intake
  lean mass relative to whole body weight (EchoMRI): increase in lean mass
[1]; after three weeks of treatment, 6 h fast
  fasting blood glucose levels: vast improvements
[1]; after three weeks of treatment, 6 h fast, 0.75 U/kg HumulinR
  insulin tolerance test (IP-ITT): improved insulin sensitivity
[1]; after three weeks of treatment, 6 h fast, 1 g/kg D-glucose
  intraperitoneal glucose tolerance test (IP-GTT): more glucose tolerant
[1]; after three weeks of treatment, ELISA
  fasting insulin levels: significantly lower
[1]; study termination at 11 weeks
  hepatic levels of triglycerides: significantly reduced
  serum ALT: no significant changes
  serum AST: no significant changes
  serum levels of triglycerides: significantly reduced
Chow diet fed mice; 125 mg/kg, BID, three weeks
  tolerability: well tolerated
Chow diet fed mice; [5]
  body weight: no observed weight change
  cholesterol levels in serum: No changes
  cholesterol levels in the liver: No changes
  liver triglyceride levels: observed decrease
  serum blood urea nitrogen (BUN): no drug-induced kidney damage
  serum creatinine: no drug-induced kidney damage
  serum triglyceride levels: no significant change
Chow diet fed mice; mice
  oral bioavailability: orally bioavailable
[2]; [6]
  food intake: remained constant
  hepatic steatosis (H&E liver sections): improvement in hepatic steatosis in a dose-dependent manner
  serum cholesterol levels (HDL and VLDL/LDL fractions): dose-dependent decrease
  serum triglyceride levels: dose-dependent decrease
[2]; all treatment groups
  overall lean mass (EchoMRI): no changes
[2]; highest dose 125 mg/kg, BID, two weeks
  body weight: weight loss
[2]; highest dose treatment group (125 mg/kg, BID)
  fat mass as a percentage of body weight (EchoMRI): decrease in fat mass as a percentage of body weight
[2]; highest dosing treatment regimens
  liver triglyceride levels: striking decreases
[2]; lower doses (12.5, 25, 62.5 mg/kg, BID), two weeks
  body weight: smaller or negligible changes in body weight
[3]
  food intake: not attributed to changes in food intake
[3]; TOFA 250 mg/kg
  liver damage: largely decreased liver damage relative to vehicle control treatment at comparable, or stronger, degrees than Firsocostat, Fenofibrate, or the combination of the two agents
  liver triglyceride levels: strong decrease in liver triglyceride levels relative to Firsocostat treatments and vehicle control treatment
[3]; TOFA 250 mg/kg, Firsocostat 5 mg/kg, Fenofibrate 50 mg/kg
  body weight: significant weight loss
[3]; liver mRNA
  PPARA downstream targets Vldlr and Cpt1a (RT-qPCR): unique increase
  genes involved in inflammation (Il1b, Il6) and collagen synthesis (Col1a1, Col3a) by RT-qPCR: specific, comparable response
[3]; liver samples
  protein expression levels of VLDLR and CPT1A (western blot): increased protein expression levels of VLDLR and CPT1A to higher degrees than the other treatment regimens
[3]; liver sections
  steatosis (H&E staining): decreased levels of steatosis
